Experiment: gradient 5% acetonitrile 3 min, to 50% in 2 min, to 85% in 15 min, held 3 min, 100 µL/min
Settings: column: Zorbax Extend-C18 2.1 x 50 mm; eluents: water / acetonitrile, 0.1% formic acid
Method in brief: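 The mobile phases were water and acetonitrile, each with 0.1% formic acid, pumped at 100 μL/min through a Zorbax Extend-C18 column (2.1 × 50 mm, 1.8 μm). Pure standards were injected as mixtures of ~100 molecules and detected by a quadrupole time-of-flight mass spectrometer in positive and negative ionization mode. Retention time came from computationally picked adduct peaks, each inspected by hand.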

Structure (SMILES)	RP-LC retention time
COc1ccccc1CCC(=O)N1C[C@@H]2C[C@H](NC(=O)c3cccs3)[C@H]1C2	782 s
COc1ccc(N2CC(c3nc(-c4cc(OC)c(OC)c(OC)c4)no3)CC2=O)cc1 (stereo not drawn)	743 s
COc1ccccc1-c1nc(Cc2noc(Cc3ccc(F)cc3)n2)c(C)o1	1000 s
CC(C)(C)NC(=O)c1cc2c(n(-c3ccc(C(F)(F)F)cc3)c1=O)CCCC2=O	949 s
O=C1CC2(CCN(S(=O)(=O)c3cc(F)ccc3F)CC2)Oc2ccccc21	929 s
O=C(COc1cccc(C(F)(F)F)c1)NCCCn1nc(-c2ccncc2)ccc1=O	601 s
Cc1cc(C)cc(NC(=O)C2CCCN(c3cc(=O)n(C)c(=O)n3C)C2)c1 (stereo not drawn)	783 s
CCN(CC)C(=O)c1ccc2c(c1)N(Cc1ccc(F)cc1)C(=O)CO2	826 s
O=C(O)c1ccc(N2CCCCC2)cc1O	828 s
O=C(CN1CCN(Cc2ccc(F)cc2Cl)C1=O)NCCCc1ccccc1	930 s
CCCCc1ccc(N2C(=O)CC(c3ccc(OC)c(OC)c3)CC2=O)cc1	1040 s
Cc1cc(C)nc(Sc2ccc(S(C)(=O)=O)cc2[N+](=O)[O-])n1	750 s
O=Cc1cn(Cc2ccc(Cl)cc2)c2ccccc12	968 s
c1ccc(-c2nc3cc(-c4noc(-c5cccnc5)n4)ccc3o2)cc1	1290 s
O=C(NC1c2ccccc2-c2ccccc21)c1cccc([N+](=O)[O-])c1	961 s
Cc1ccc2nc(-c3ccccc3)c(Nc3ccc(Cl)cc3)n2c1	755 s
CCCN(CC1CCOC1)C(=O)Nc1ccccc1Cl (stereo not drawn)	846 s
COCCN1CCn2cc(S(=O)(=O)Nc3ccc(OC)c(Cl)c3)cc2C1=O	726 s
CC1CCN(C(=O)c2cc3c(s2)CCC(C(=O)N2CCCC2)C3)CC1 (stereo not drawn)	849 s
O=C(NCC1CCS(=O)(=O)C1)c1cc(-c2ccc(F)cc2)n[nH]1 (stereo not drawn)	643 s

Structure (SMILES)	RP-LC retention time
COc1ccc(OC)c(NC(=O)C2C(=O)NC3(C)CC2c2ccccc2O3)c1 (stereo not drawn)	875 s
O=C(Nc1nc(-c2ccccc2)cs1)c1ccc(COc2ccc(Cl)cc2Cl)o1	1280 s
CC(C)Oc1ccc(CNC(=O)C2(C)CCCCC(=O)N2)cc1 (stereo not drawn)	710 s
Cn1nccc1C(=O)N1CCCCCCNC(=O)[C@@H]2CCCC[C@@H]21	705 s
COc1ccc(-c2nnc(Cc3nc(-c4ccc(Cl)cc4)no3)o2)cc1	1070 s
Cc1cc(C)c(S(=O)(=O)N2CCc3c(c(-c4nnc(-c5ccccc5)o4)nn3C)C2)cc1C	1070 s
Cc1ccc(CNc2ccc(-c3nc(-c4ccc(F)cc4)no3)cn2)o1	1190 s
CCOc1cc(-c2noc(-c3nnn4c3COC(c3ccc(C)cc3C)C4)n2)ccc1OC (stereo not drawn)	1250 s
Cn1ccc2cc(CCC(=O)N3CCN(c4ccc(F)cc4)CC3)ccc21	951 s
CCn1cc(C)c(C(=O)O)c1CC(=O)NCCN1CCOCC1	582 s
CCOC(=O)c1c(C(C)(C)C)oc2ccc(OCC#N)cc12	1140 s
N#Cc1cccc(CN2C[C@@H]3C(=O)N(CCc4ccccc4)C(=O)[C@@H]3C2)c1	849 s
Cc1ccc(-n2ncc3c(=O)n(Cc4nc(-c5ccc(Cl)cc5)no4)cnc32)cc1	1160 s
Cc1csc(NC(=O)C2CCCN(c3ncnc4c3nc3n4CCCCC3)C2)n1 (stereo not drawn)	756 s
CCC(C)NC(=O)Cn1cnc2nc(N3CCCC(C(=O)NC4CC4)C3)sc2c1=O (stereo not drawn)	610 s
COc1ccc(-c2n[nH]c3c2C(c2ccc(O)c(OC)c2)NC3=O)cc1 (stereo not drawn)	639 s
Cc1onc(-c2ccccc2Cl)c1C(=O)NCCn1nc(-c2ccccc2)n(C)c1=O	708 s
Cc1ncc2c(n1)C[C@@H]1CC[C@H]2N1C(=O)NCCc1ccccc1	647 s
COc1ccccc1NC(=O)C1c2cc(OC)c(OC)cc2C(=O)N2CCc3ccccc3C12 (stereo not drawn)	862 s
Cc1ccc(S(=O)(=O)N2CCc3c(c(-c4nnc(-c5ccc(F)cc5)o4)nn3C)C2)c(C)c1	1060 s

Now from value to compound:

RP-LC retention time	Structure (SMILES)
802 s	CCn1cc(CCNC(=O)Nc2cccc(Cl)c2F)c2cccnc21
779 s	CCOc1ccccc1CNC(=O)C1CCN(S(=O)(=O)c2cn(C(C)C)cn2)CC1
904 s	Cc1cc(OCC(=O)Nc2cccc(Cl)c2)nc(N2CCN(c3ccccc3)CC2)n1
984 s	COc1ccc(C(=O)Nc2nc(-c3ccc4c(c3)N(C)C(=O)C(C)O4)cs2)cc1 (stereo not drawn)
869 s	COc1cccc(Cn2c(N3CCSCC3)nc(C)cc2=O)c1
647 s	COc1cc(-c2nc3ncccn3c2Nc2cccc(C)c2)ccc1O
1170 s	O=C(Nc1cccc(Cl)c1)Nc1nccn(-c2ccc3c(c2)CCC3)c1=O
735 s	CN(C)C(=O)c1cc2c(s1)CCC(C(=O)N1CCN(c3ccccc3)CC1)C2 (stereo not drawn)
940 s	Cc1nc(-c2csc(S(=O)(=O)N3CCCC(C(=O)NCc4ccccc4Cl)C3)c2)no1 (stereo not drawn)
745 s	Cc1ccc2nc(C(=O)N3CCC(C)CC3)cc(Nc3ccc(N(C)C)cc3)c2c1
706 s	O=C(NCC1CC1)c1ccc2c(c1)nc1n2CCN(C2CCCCC2)C1=O
663 s	COc1cc2c(cc1OC)C(C(=O)NCCCN1CCCC1=O)C1c3ccccc3CCN1C2=O (stereo not drawn)
676 s	COc1ccc(NC(=O)Cn2cnc3nc4c(cc3c2=O)CCCC4)cc1OC
789 s	O=C(NC1CC1)c1cccc(OCC2CCCN(C(=O)C3CCC3)C2)c1 (stereo not drawn)
715 s	Cc1ccc(CN2CCN(C3CCN(C(=O)Nc4ccc5c(c4)OCCO5)CC3)C(=O)C2=O)cc1
704 s	CS(=O)(=O)N1CCC(OC2CCN(C(=O)NCc3ccccc3)CC2)CC1
626 s	CCc1ccc(NC(=O)N2CCN(Cc3ccc4nccnc4c3)CC2)cc1
969 s	CCCn1c(=O)sc2cc(S(=O)(=O)N3CCC(C(=O)NCc4ccc(C)cc4)CC3)ccc21
715 s	Cn1cnc2c(C(=O)NCC3CCCO3)nn(-c3ccc(Cl)cc3)c2c1=O (stereo not drawn)
849 s	CCN1c2ccccc2C(=O)NC12CCN(C(=O)Cc1ccccc1C)CC2
1060 s	COc1ccc(S(=O)(=O)N2CCCC(C(=O)Nc3cccc(C)c3)C2)cc1Cl (stereo not drawn)
660 s	Cc1c(F)cccc1NC(=O)Nc1ccc2nncn2c1
654 s	COCc1nc2cccnc2n1C1CCN(C(=O)Nc2ccc3c(c2)OCCO3)CC1
856 s	COc1ccc(N2C=C(C(=O)N3CCCC3)S(=O)(=O)c3ccc(Cl)cc32)cc1

RP-LC retention time	Structure (SMILES)
910 s	Cc1csc(-c2ccc(N3CCN(C(=O)c4cc(F)ccc4Cl)CC3)nc2)n1
742 s	O=C(NCc1cccs1)c1nc(-c2ccnc(N3CCCCC3)c2)no1
568 s	Cc1oc2ncnc(N3CCCCC3)c2c1C(=O)N(CCN(C)C)Cc1ccccc1
1030 s	Cc1ccc(Cn2c(N3CCCC(C(=O)NCCC(C)C)C3)nc3ccsc3c2=O)cc1 (stereo not drawn)
548 s	CCNC(=O)N1CCOc2ccc(N(C)C)cc2C1
793 s	Cc1cc(C)c(CNC(=O)C2CCN(c3cnc4nccnc4c3)CC2)c(C)c1
1010 s	COc1ccc(Cl)cc1NC(=O)N(C)CCc1noc(COc2ccccc2)n1
947 s	O=C(C1c2ccccc2CCN1C(=O)C1CC1)N1CCN(c2ccccc2F)CC1 (stereo not drawn)
656 s	COc1ccc(OC)c(S(=O)(=O)N2CCC(Cc3ncc(C)n3C3CC3)C2)c1 (stereo not drawn)
796 s	COC1CN(C2CCN(C(=O)c3sc(C)nc3C)CC2)C12CCOCC2 (stereo not drawn)
802 s	COc1ccc(C(=O)Nc2cc(-c3cccnc3)no2)c(OC)c1
711 s	N#Cc1cnc2ccccc2c1N1CCC(C(=O)N2CCc3ccccc3C2)CC1
629 s	O=C(Nc1cccc(C(F)(F)F)c1)N1CCN(c2cnn3c(C4CC4)nnc3c2)CC1
566 s	O=C(c1csc(-c2ccc(N3CCCC3)nc2)n1)N1CCN(c2ccccn2)CC1
878 s	O=C(Cc1ccc2c(c1)OCO2)Nc1nc2c(s1)Cc1ccccc1-2
591 s	Cc1ccc2c(Nc3ccc4c(c3)OCO4)c(C(=O)N3CCCC3)cnc2n1
717 s	O=C(NCc1csc(C2CCCN(C(=O)c3ccc(F)cc3F)C2)n1)C1CC1 (stereo not drawn)
694 s	Cc1oc(-c2ccc(C(=O)NCCN(C)C)cc2)nc1CN1CCc2ccccc21
684 s	Cc1nc(C)c(C(=O)N2CCC(CC(=O)N3CCOCC3)C2)s1 (stereo not drawn)
982 s	CSc1cccc(NC(=O)CN2C(=O)C3CCCCN3c3ccc(S(=O)(=O)N(C)C)cc32)c1 (stereo not drawn)
760 s	COCCOc1ccc2c(n1)CCN(C(=O)NC1CCCCC1)C2
752 s	Cc1ccc(-c2nc3n(CC(=O)N4CCCC4)c4c(c(=O)n3n2)CCC4)cc1
818 s	Cc1nc2c(NC(=O)COc3ccc(F)c(F)c3)cccn2n1
1100 s	Cc1ccc(NC(=O)CSc2cc(N3CCC(C)CC3)ncn2)c(C)c1
